Consider 3 molecules from publication PMC10226132, “First-in-Class Selective Inhibitors of the Lysine Acetyltransferase KAT8” (Journal of Medicinal Chemistry, 2023).

Structures are written as SMILES.

Holding throughout (format): biochemical
Assay [1] addresses KDAC2 (Homo sapiens, UniProt Q92769). Nature of the assay: KDAC inhibition assay, KDAC2. The conditions noted are these: mean of three technical replicates. Here is the method: (§1) KDAC1, 2, 3 6, and 8 inhibition assays were performed as described previously.[52] Briefly, the relevant human recombinant KDAC was diluted in an assay buffer with the following composition: 150 mM NaCl, 25 mM Tris–HCl (pH 8.0), 2.7 mM KCl, and 1 mM MgCl2; BSA (0.1 mg/mL) was also added in the case of KDAC1. Forty microliters of this solution were added to 10 μL of each inhibitor ([…]) and 50 μL of KDAC Assay substrate (Boc-Lys-(Ac)-AMC, 7–100 μM final concentration, depending on the KDAC isoform), and the resulting solution was mixed. […] After thorough mixing of the resulting solution, the plate was covered and incubated at 37 °C for 25 min and the fluorescence (λemission = 460 nm; λexcitation = 390 nm) was measured on a EnSight Multimode Plate Reader (Perkin Elmer). The shown values are average of three technical replicates ± SD.

Assay [2] addresses KDAC1 (Homo sapiens, UniProt Q13547). The assay can be described thus: KDAC inhibition assay, KDAC1. The following applies: mean of three technical replicates. Here is the method: as §1
The target of assay [3] is T1, KAT5 (Homo sapiens, UniProt Q92993).
T1 construct: full length human KAT5 (25 nM) and KAT7 (25 nM) were used; purchased Reaction Biology Corporation
T1 sequence (Q92993 whole entry): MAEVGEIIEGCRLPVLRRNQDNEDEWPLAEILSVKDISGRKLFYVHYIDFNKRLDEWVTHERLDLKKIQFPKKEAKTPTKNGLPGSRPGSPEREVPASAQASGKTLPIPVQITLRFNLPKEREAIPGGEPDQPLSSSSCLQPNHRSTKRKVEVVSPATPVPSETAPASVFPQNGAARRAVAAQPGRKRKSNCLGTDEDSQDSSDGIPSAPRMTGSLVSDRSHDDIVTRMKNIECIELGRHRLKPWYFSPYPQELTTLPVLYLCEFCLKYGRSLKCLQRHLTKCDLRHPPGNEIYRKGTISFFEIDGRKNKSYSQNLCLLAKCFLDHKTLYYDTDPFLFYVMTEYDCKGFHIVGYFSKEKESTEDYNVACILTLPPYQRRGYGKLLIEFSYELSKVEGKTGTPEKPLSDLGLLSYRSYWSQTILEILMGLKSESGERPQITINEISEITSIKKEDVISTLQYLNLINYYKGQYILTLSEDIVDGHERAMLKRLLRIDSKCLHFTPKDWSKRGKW
The assay can be described thus: HotSpot KAT assay, KAT5. The following applies: for inhibition at 200 µM: read-out: % inhibition at 200 μM KAT5 (25 nM), NI = no inhibition. Here is the method: (§2) The effects of the compounds on other KATs were determined using the HotSpot KAT assay (Reaction Biology Corporation, Malvern, PA, USA) according to the supplier’s procedure. The recombinant catalytic domains of human KAT2A (aa 323–837, 15 nM), KAT2B (aa 492–658, 25 nM), KAT3B (aa 1284–1672, 1 nM), KAT6A (aa 488–778, 10 nM), KAT6B (aa 657–1069, 10 nM), and full length human KAT5 (25 nM) and KAT7 (25 nM) were used. Each enzyme was incubated with the relevant histone peptide [H3 peptide for KAT2A, KAT2B, KAT3B, KAT6A, and KAT7 (2.5–5 μM, depending on the KAT isoform); H2A peptide for KAT5 (1.25 μM); H4 peptide for KAT6B (2.5 μM)] as a substrate and radio-isotope-labeled [^3H]Acetyl-CoA (0.2–1.5 μM, depending on the KAT isoform) as an acetyl donor in the assay buffer [50 mM Tris–HCl (pH 8.0), 50 mM NaCl, 0.1 mM EDTA, 1 mM DTT, 0.1 mM PMSF, 1% DMSO] for 1 h at 30 °C in the presence or absence of various compounds (1% DMSO final) titrated in a 2-fold serial dilution starting at 200 μM. Histone peptide acetylation was assessed by liquid scintillation counting using a Tri-Carb 2800TR Liquid Scintillation Analyzer (Perkin Elmer). Experiments were performed in biological triplicates. Signal reduction compared to control was plotted (as inhibition percentage) as a function of compound concentration. In cases in which an IC50 was calculated, the values were fitted by nonlinear regression (GraphPad Prism 8.0).

For assay [4], the target named is T2, KDAC8 (Homo sapiens, UniProt Q9BY41).
T2 sequence (Q9BY41 1-377): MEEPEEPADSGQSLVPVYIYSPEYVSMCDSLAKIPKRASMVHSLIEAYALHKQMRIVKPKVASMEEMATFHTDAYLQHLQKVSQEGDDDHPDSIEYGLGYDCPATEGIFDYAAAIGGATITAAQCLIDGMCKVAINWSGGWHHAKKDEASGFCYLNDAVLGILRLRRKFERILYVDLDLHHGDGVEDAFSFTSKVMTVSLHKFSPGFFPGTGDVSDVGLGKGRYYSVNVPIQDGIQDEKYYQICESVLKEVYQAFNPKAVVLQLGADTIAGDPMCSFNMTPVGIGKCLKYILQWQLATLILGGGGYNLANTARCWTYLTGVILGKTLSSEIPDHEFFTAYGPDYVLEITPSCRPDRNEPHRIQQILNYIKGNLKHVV
The assay can be described thus: KDAC inhibition assay, KDAC8. The following applies: mean of three technical replicates. The method, then: as §1

The target in assay [5] is T3, KAT6B (Homo sapiens, UniProt Q8WYB5).
T3 construct: KAT6B (aa 657–1069, 10 nM); purchased Reaction Biology Corporation
T3 sequence (Q8WYB5 657-1069): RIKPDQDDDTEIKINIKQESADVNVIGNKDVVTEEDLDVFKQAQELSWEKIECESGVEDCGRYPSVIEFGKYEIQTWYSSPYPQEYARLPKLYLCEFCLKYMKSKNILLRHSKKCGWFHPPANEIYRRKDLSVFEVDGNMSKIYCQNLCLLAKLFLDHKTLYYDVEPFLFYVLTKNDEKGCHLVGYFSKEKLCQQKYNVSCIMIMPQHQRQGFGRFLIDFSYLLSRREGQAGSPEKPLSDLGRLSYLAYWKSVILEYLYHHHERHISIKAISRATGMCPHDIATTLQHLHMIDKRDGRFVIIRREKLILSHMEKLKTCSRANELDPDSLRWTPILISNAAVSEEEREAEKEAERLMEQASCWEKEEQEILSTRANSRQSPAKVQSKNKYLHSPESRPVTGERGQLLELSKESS
Nature of the assay: HotSpot KAT assay, KAT6B. The conditions noted are these: for inhibition at 200 µM: read-out: % inhibition at 200 μM KAT6B (10 nM), NI = no inhibition. Here is the method: as §2

Chain of KDAC2 (Q92769 whole entry, canonical isoform): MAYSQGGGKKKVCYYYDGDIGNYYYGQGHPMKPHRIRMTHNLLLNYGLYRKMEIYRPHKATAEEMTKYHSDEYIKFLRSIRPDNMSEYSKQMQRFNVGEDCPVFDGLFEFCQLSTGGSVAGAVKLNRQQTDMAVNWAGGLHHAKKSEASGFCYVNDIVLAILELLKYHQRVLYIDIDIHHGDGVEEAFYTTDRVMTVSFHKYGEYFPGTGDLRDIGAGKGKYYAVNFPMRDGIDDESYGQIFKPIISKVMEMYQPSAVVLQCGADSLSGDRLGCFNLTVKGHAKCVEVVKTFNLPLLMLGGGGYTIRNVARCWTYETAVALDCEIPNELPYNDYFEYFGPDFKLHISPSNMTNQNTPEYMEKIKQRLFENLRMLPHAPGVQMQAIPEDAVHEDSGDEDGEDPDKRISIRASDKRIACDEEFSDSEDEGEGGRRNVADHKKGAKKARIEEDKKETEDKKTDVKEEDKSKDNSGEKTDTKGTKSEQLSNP
Chain of KDAC1 (Q13547 whole entry): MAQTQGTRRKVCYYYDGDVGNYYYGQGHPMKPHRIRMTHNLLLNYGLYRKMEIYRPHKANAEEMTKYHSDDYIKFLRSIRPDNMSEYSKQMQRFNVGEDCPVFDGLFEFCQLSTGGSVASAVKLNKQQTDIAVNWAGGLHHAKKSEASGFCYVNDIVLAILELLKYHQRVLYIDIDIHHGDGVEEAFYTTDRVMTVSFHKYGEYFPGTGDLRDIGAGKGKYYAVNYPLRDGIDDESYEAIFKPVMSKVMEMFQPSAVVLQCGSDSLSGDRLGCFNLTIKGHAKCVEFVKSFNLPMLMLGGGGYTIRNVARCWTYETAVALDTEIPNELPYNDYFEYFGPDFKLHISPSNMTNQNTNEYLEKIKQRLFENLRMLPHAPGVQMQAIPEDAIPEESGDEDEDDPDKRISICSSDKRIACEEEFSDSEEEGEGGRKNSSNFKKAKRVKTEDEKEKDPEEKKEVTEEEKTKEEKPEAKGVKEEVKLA

For `CC1=NN(c2ccc(C(=O)O)cc2)C(=O)/C1=C\c1ccc(-c2cc(C)c(C)cc2[N+](=O)[O-])o1` [VII (C646), reference compound], the inhibition at 50 µM in assay [1] worked out at 75.4%; in assay [2], 0.7%; in assay [4], 77.6%. For the same molecule, the inhibition at 100 µM in assay [1] is 87.6%; in assay [2], 1.3%; in assay [4], 89.1%. The IC50 in assay [3] (control compound, read-out: IC50 KAT5 (25 nM)) amounted to 18.3 µM; in assay [5] (read-out: IC50 KAT6B (10 nM), control compound), 5.6 µM.

Take `CC1=NN(c2ccc(C(=O)O)cc2)C(=O)/C1=C\c1ccc[nH]1` [Compound 19, (Z)-4-(4-((1H-Pyrrol-2-yl)methylene)-3-methyl-5-oxo-4,5-dihydro-1H-pyrazol-1-yl)benzoic Acid]: the inhibition at 50 µM in assay [1] came to 0.01%; in assay [2], 0.03%; in assay [4], 0.02%. For the same molecule, the inhibition at 100 µM came out at 0.7% in assay [1], 0.3% in assay [2] and 0.8% in assay [4]. Moreover, the inhibition at 200 µM in assay [3] stood at 11.3 ± 0.3%; in assay [5], 4.8 ± 1.6%.

Take `O=C(O)c1ccc(N2N=C(c3ccccc3)/C(=C/c3ccc[nH]3)C2=O)cc1` [Compound 34, (Z)-4-(4-((1H-Pyrrol-2-yl)methylene)-5-oxo-3-phenyl-4,5-dihydro-1H-pyrazol-1-yl)benzoic Acid]: the results for the inhibition at 50 µM in assay [1], in assay [2] and in assay [4] were 0.03%, 0.04% and 0.04%, respectively. The inhibition at 100 µM in assay [1] was 0.4%; in assay [2], 0.5%; in assay [4] it was 0.6%. The inhibition at 200 µM in assay [3] is 18.5 ± 1.3%; in assay [5], 19.6 ± 1%.

The inhibition is the change of the read-out against control, counted positive when it falls. As usually defined, the IC50 is the point on the concentration scale where inhibition reaches its midpoint.
